Legend:
R6/2 mice = settings: cited from earlier work
PC12 cells = assay: MTT metabolism assay, serum-deprived PC12 cells; type: cell-based, rat; settings: 24 h
Method: Survival was assessed by the 3-(4,5-dimethylthiazol-2-yl)-2,5-diphenyltetrazolium bromide (MTT) metabolism assay as described elsewhere, [65]. In brief, cells grown on 150-mm plates were washed three times with PBS and resuspended in DMEM. Suspended cells (1×10^4 cells) were plated on 96-well plates and treated with or without the indicated reagent. After incubation for 24 h, MTT (0.5 mg/ml) was added to the medium and incubated for 3 h. After discarding the medium, DMSO (100 µl) was then applied to the well to dissolve the formazan crystals derived from the mitochondrial cleavage of the tetrazolium ring by live cells. The absorbance at 570/630 nm in each well was measured on a micro-enzyme-linked immunosorbent assay reader.

A2AR = biological target: T1, A2AR (Rattus norvegicus, UniProt P30543); assay: cAMP assay in PC12 cells; type: cell-based; settings: PC12 cells, T1-11 10 µM, SCH 1 µM, 20 min
T1 construct: Treatment of PC12 cells with T1-11 dose-dependently elevated the cellular cAMP levels; endogenous in cells; host or cells: PC12
T1 sequence (P30543 whole entry): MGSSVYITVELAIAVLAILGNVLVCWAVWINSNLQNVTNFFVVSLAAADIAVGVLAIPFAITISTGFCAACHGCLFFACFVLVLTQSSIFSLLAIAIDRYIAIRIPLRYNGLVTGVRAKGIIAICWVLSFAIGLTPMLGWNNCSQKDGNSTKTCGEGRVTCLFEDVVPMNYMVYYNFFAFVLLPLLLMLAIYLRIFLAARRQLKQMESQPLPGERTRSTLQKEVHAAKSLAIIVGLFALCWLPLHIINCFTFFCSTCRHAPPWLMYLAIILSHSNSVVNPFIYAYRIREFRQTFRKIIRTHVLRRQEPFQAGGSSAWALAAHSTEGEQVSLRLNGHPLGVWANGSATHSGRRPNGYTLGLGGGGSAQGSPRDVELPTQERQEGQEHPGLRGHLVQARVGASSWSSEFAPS
Method: PC12 cells were plated at the density of 5×10^5 cells/well (on 12-well plates) and incubated with the indicated reagent(s) for the desired period of time. Cells were washed twice with ice-cold Locke's solution (150 mM NaCl, 5.6 mM KCl, 5 mM glucose, 1 mM MgCl2, and 10 mM HEPES, adjusted to pH 7.4). Cellular cAMP was extracted by adding 0.3 ml of 0.1 M HCl to each well and incubating this for 10 min on ice.

[1] = biological target: Adenosine transporter (ENT1); settings: ENT1 inhibitor reference value; no reference given; cited from earlier work

**Q.** Which “Effects on major HD symptoms (brain atrophy, striatal aggregates, deteriorated motor coordination)” value (R6/2 mice) does the source give for `CCNC(=O)[C@H]1O[C@@H](n2cnc3c(N)nc(NCCc4ccc(CCC(=O)O)cc4)nc32)[C@H](O)[C@@H]1O` [CGS] here?
**A.** provides beneficial effects on several major HD symptoms

**Q.** For `Nc1nc2c(cnn2CCc2ccccc2)c2nc(-c3ccco3)nn12` [SCH58216], which Motor coordination (R6/2 mice; treatment for 1 week) is on record?
**A.** worsened motor coordination

**Q.** And the “Effect of A2AR antagonist on T1-11's prevention of serum deprivation-induced death” value (PC12 cells)?
**A.** blocked the effect of T1-11

**Q.** And the “Effect on T1-11-induced elevation in the cAMP level” value (A2AR)?
**A.** effectively blocked the T1-11-induced elevation in the cAMP level

**Q.** For `O=[N+]([O-])c1ccc(CSc2ncnc3c2ncn3[C@@H]2O[C@H](CO)[C@@H](O)[C@H]2O)cc1` [NBTI, 6-[(4-nitrobenzyl)thio]-9-β-D-ribofuranosylpurine], which Ki [1] is on record?
**A.** 0.85 nM

**Q.** With `Nc1nc(NCCc2ccc(O)cc2)nc2nc(-c3ccco3)nn12` [ZM241385] as the compound, how does the “Effect of A2AR antagonist on T1-11's prevention of serum deprivation-induced death” value (PC12 cells) read?
**A.** blocked the effect of T1-11
